Measured values reported in ChEMBL document CHEMBL5303573, “Mapping human microbiome drug metabolism by gut bacteria and their genes” (Nature, 2019).

What was measured:
[1] = The drug is tested on Collinsella intestinalis strain: DSM13280 for biotransformation. The drug concentrations were measured before and after a 12-h incubation by liquid-chromatography-coupled mass spectrometry (LC–MS); conditions: 2 µM
[2] = bacteroides thetaiotaomicron, 12 h, 2 µM
Description: The drug is tested on Bacteroides thetaiotaomicron strain: 3731 for biotransformation. The drug concentrations were measured before and after a 12-h incubation by liquid-chromatography-coupled mass spectrometry (LC–MS)

[3] = The drug is tested on Bacteroides pectinophilus strain: ATCC43243 for biotransformation. The drug concentrations were measured before and after a 12-h incubation by liquid-chromatography-coupled mass spectrometry (LC–MS); conditions: 2 µM
[4] = bacteroides intestinalis, 12 h, 2 µM
Description: The drug is tested on Bacteroides intestinalis strain: DSM17393 for biotransformation. The drug concentrations were measured before and after a 12-h incubation by liquid-chromatography-coupled mass spectrometry (LC–MS)

[5] = The drug is tested on Bifidobacterium longum subsp. Infantis strain: CCUG52486 for biotransformation. The drug concentrations were measured before and after a 12-h incubation by liquid-chromatography-coupled mass spectrometry (LC–MS); conditions: 2 µM
[6] = bacteroides stercoris, 12 h, 2 µM
Description: The drug is tested on Bacteroides stercoris strain: ATCC43183 for biotransformation. The drug concentrations were measured before and after a 12-h incubation by liquid-chromatography-coupled mass spectrometry (LC–MS)

[7] = bacteroides fragilis, 12 h, 2 µM
Description: The drug is tested on Bacteroides fragilis strain: NCTC 9343 for biotransformation. The drug concentrations were measured before and after a 12-h incubation by liquid-chromatography-coupled mass spectrometry (LC–MS)

[8] = The drug is tested on Parabacteroides merdae strain: ATCC43184 for biotransformation. The drug concentrations were measured before and after a 12-h incubation by liquid-chromatography-coupled mass spectrometry (LC–MS); conditions: 2 µM
[9] = The drug is tested on Clostridium scindens strain: ATCC35704 for biotransformation. The drug concentrations were measured before and after a 12-h incubation by liquid-chromatography-coupled mass spectrometry (LC–MS); conditions: 2 µM
[10] = The drug is tested on Providencia rettgeri strain: DSM1131 for biotransformation. The drug concentrations were measured before and after a 12-h incubation by liquid-chromatography-coupled mass spectrometry (LC–MS); format: ADME; set-up: dose 2 uM, timepoint 0 vs 12 hours; conditions: 2 µM
[11] = The drug is tested on Ruminococcus lactaris strain: ATCC29176 for biotransformation. The drug concentrations were measured before and after a 12-h incubation by liquid-chromatography-coupled mass spectrometry (LC–MS); conditions: 2 µM
[12] = The drug is tested on Clostridium asparagiforme strain: DSM15981 for biotransformation. The drug concentrations were measured before and after a 12-h incubation by liquid-chromatography-coupled mass spectrometry (LC–MS); format: ADME; set-up: dose 2 uM, timepoint 0 vs 12 hours; conditions: enterocloster asparagiformis, 2 µM
[13] = bacteroides eggerthii, 12 h, 2 µM
Description: The drug is tested on Bacteroides eggerthii strain: DSM20697 for biotransformation. The drug concentrations were measured before and after a 12-h incubation by liquid-chromatography-coupled mass spectrometry (LC–MS)

[14] = The drug is tested on Anaerotruncus colihominis strain: DSM17241 for biotransformation. The drug concentrations were measured before and after a 12-h incubation by liquid-chromatography-coupled mass spectrometry (LC–MS); conditions: 2 µM
[15] = The drug is tested on Bacteroides xylanisolvens strain: DSM18836 for biotransformation. The drug concentrations were measured before and after a 12-h incubation by liquid-chromatography-coupled mass spectrometry (LC–MS); conditions: 2 µM
[16] = bacteroides fragilis, 12 h, 2 µM; remark: listed apart in the source
Description: The drug is tested on Bacteroides fragilis strain: DS-208 for biotransformation. The drug concentrations were measured before and after a 12-h incubation by liquid-chromatography-coupled mass spectrometry (LC–MS)

[17] = bacteroides thetaiotaomicron, 12 h, 2 µM; remark: listed apart in the source
Description: The drug is tested on Bacteroides thetaiotaomicron strain: VPI-5482 for biotransformation. The drug concentrations were measured before and after a 12-h incubation by liquid-chromatography-coupled mass spectrometry (LC–MS)

[18] = parabacteroides johnsonii, 12 h, 2 µM
Description: The drug is tested on Parabacteroides johnsonii strain: DSM18315 for biotransformation. The drug concentrations were measured before and after a 12-h incubation by liquid-chromatography-coupled mass spectrometry (LC–MS)

[19] = bacteroides thetaiotaomicron, 12 h, 2 µM; remark: listed apart in the source
Description: The drug is tested on Bacteroides thetaiotaomicron strain: 7330 for biotransformation. The drug concentrations were measured before and after a 12-h incubation by liquid-chromatography-coupled mass spectrometry (LC–MS)

[20] = The drug is tested on Bacteroides vulgatus strain: ATCC8482 for biotransformation. The drug concentrations were measured before and after a 12-h incubation by liquid-chromatography-coupled mass spectrometry (LC–MS); conditions: phocaeicola vulgatus, 2 µM

Row | Structure (SMILES) | Bacterial Biotransformation [1] | Bacterial Biotransformation [2] | Bacterial Biotransformation [3] | Bacterial Biotransformation [4] | Bacterial Biotransformation [5] | Bacterial Biotransformation [6] | Bacterial Biotransformation [7] | Bacterial Biotransformation [8] | Bacterial Biotransformation [9] | Bacterial Biotransformation [10] | Bacterial Biotransformation [11] | Bacterial Biotransformation [12] | Bacterial Biotransformation [13] | Bacterial Biotransformation [14] | Bacterial Biotransformation [15] | Bacterial Biotransformation [16] | Bacterial Biotransformation [17] | Bacterial Biotransformation [18] | Bacterial Biotransformation [19] | Bacterial Biotransformation [20]
1 | NC(=O)N1c2ccccc2CC(=O)c2ccccc21 [OXCARBAZEPINE] | Compound NOT metabolized | Compound NOT metabolized | Compound metabolized | Compound NOT metabolized | Compound metabolized | Compound metabolized | Compound NOT metabolized | Compound NOT metabolized | Compound metabolized | Compound metabolized | Compound metabolized | Compound NOT metabolized | Compound NOT metabolized | Compound NOT metabolized |  |  |  |  |  | 
2 | CNCC[C@H](Oc1cccc2ccccc12)c1cccs1 [DULOXETINE] | Compound NOT metabolized | Compound NOT metabolized | Compound NOT metabolized | Compound NOT metabolized | Compound NOT metabolized | Compound metabolized | Compound metabolized | Compound metabolized | Compound NOT metabolized | Compound metabolized |  | Compound NOT metabolized | Compound NOT metabolized | Compound NOT metabolized | Compound metabolized | Compound NOT metabolized | Compound NOT metabolized | Compound metabolized |  | 
3 | Br.COc1ccc2c(c1)[C@]13CCCC[C@@H]1[C@H](C2)N(C)CC3.O [DEXTROMETHORPHAN HYDROBROMIDE] | Compound NOT metabolized |  | Compound NOT metabolized | Compound NOT metabolized | Compound NOT metabolized | Compound NOT metabolized | Compound NOT metabolized | Compound NOT metabolized | Compound NOT metabolized | Compound NOT metabolized | Compound NOT metabolized | Compound NOT metabolized | Compound NOT metabolized | Compound NOT metabolized |  | Compound NOT metabolized | Compound NOT metabolized |  | Compound NOT metabolized | Compound NOT metabolized
4 | CCOC(=O)[C@H](CCc1ccccc1)N[C@@H](C)C(=O)N1CCC[C@H]1C(=O)O.O=C(O)/C=C\C(=O)O [ENALAPRIL MALEATE] | Compound NOT metabolized | Compound NOT metabolized | Compound NOT metabolized | Compound NOT metabolized | Compound NOT metabolized | Compound NOT metabolized | Compound NOT metabolized | Compound NOT metabolized | Compound NOT metabolized | Compound NOT metabolized | Compound NOT metabolized | Compound NOT metabolized | Compound NOT metabolized | Compound NOT metabolized | Compound metabolized | Compound NOT metabolized |  |  |  | Compound NOT metabolized
5 | CN(C)CC(c1ccc(O)cc1)C1(O)CCCCC1.O=C(O)CCC(=O)O (stereo unspecified) [DESVENLAFAXINE SUCCINATE] | Compound NOT metabolized | Compound NOT metabolized | Compound NOT metabolized | Compound NOT metabolized | Compound NOT metabolized | Compound NOT metabolized | Compound NOT metabolized | Compound NOT metabolized | Compound NOT metabolized | Compound NOT metabolized | Compound NOT metabolized | Compound NOT metabolized | Compound NOT metabolized | Compound NOT metabolized | Compound NOT metabolized | Compound NOT metabolized | Compound NOT metabolized |  |  | Compound NOT metabolized
6 | O=C(Nc1ccccc1)OCC(CN1CCCCC1)OC(=O)Nc1ccccc1 (stereo unspecified) [DIPERODON] | Compound NOT metabolized | Compound NOT metabolized | Compound NOT metabolized | Compound NOT metabolized | Compound NOT metabolized | Compound NOT metabolized | Compound NOT metabolized | Compound NOT metabolized | Compound NOT metabolized | Compound NOT metabolized | Compound NOT metabolized | Compound NOT metabolized | Compound NOT metabolized | Compound NOT metabolized | Compound NOT metabolized | Compound NOT metabolized | Compound NOT metabolized |  | Compound NOT metabolized | Compound NOT metabolized
7 | Cc1ccc(S(=O)(=O)NC(=O)NN2CC3CCCC3C2)cc1 (stereo unspecified) [GLICLAZIDE] | Compound NOT metabolized | Compound metabolized | Compound NOT metabolized | Compound NOT metabolized | Compound NOT metabolized | Compound NOT metabolized | Compound NOT metabolized | Compound NOT metabolized | Compound NOT metabolized |  | Compound NOT metabolized | Compound NOT metabolized | Compound NOT metabolized | Compound NOT metabolized | Compound NOT metabolized | Compound NOT metabolized | Compound NOT metabolized | Compound NOT metabolized | Compound NOT metabolized | Compound metabolized
